Experimental data published in publication PMC8018184, “Evaluation of the Pharmacophoric Role of the O–O Bond in Synthetic Antileishmanial Compounds: Comparison between 1,2-Dioxanes and Tetrahydropyrans” (Journal of Medicinal Chemistry, 2020).

Legend:
[1] = tested on: L. donovani promastigotes; assay: Promastigote growth inhibition in the presence of an iron chelator (DFO or DFP), isobologram; assay type: cell-based, Leishmania donovani; conditions: for Interaction with the iron chelator DFP (isobologram, FIC): FIC values > 0.5 and < 4; for IC50: Leishmania donovani, no DFO, read-out: IC50 against promastigotes, absence of DFO; for Interaction with the iron chelator DFO (isobologram, ΣFIC): synergism <0.5, antagonism >4.0, else additivity
Protocol: At first, we determined IC50 and CC50 values of the iron chelator DFO (187 and >400 μM, respectively). Then, the effect of the iron chelator presence on the bioactivity of the two compounds was studied by coincubating 2a and 3a with DFO at different concentrations. The variation of IC50 of the compounds in relation to the different doses of DFO was determined by the alamarBlue assay (Table 3), and the isobole technique was employed to depict the interactions of 2a and 3a with DFO (Figure 6).
The isobole technique was used for depicting synergistic or antagonistic interaction between the iron chelator and the two compounds on the parasite growth (Figure 6). Combinations are expressed as the sum of the fractional inhibitory concentrations (ΣFIC), and FIC values are defined as synergism (<0.5), antagonism (>4.0), and additivity (no interaction). The strength of synergism (or antagonism) is indicated by the degree of deviation from the line of additivity.
[…]. Each compound was added using a concentration range including the IC50 of each compound. Each experiment was performed in duplicate. The viability of the parasites was determined by the alamarBlue assay. The fractional inhibitory concentration (FIC; FIC = IC50 of the drug in the combination/IC50 of the drug when tested alone) of each compound was calculated and plotted as an isobologram.

[2] = tested on: intramacrophage amastigotes of L. donovani; assay: Amastigote growth inhibition assay in infected THP-1 cells (Giemsa, infectivity index); assay type: cell-based, Leishmania donovani; conditions: for IC50: Leishmania donovani, intracellular amastigotes in THP-1, 72 h, read-out: IC50 against amastigotes of L. donovani
Protocol: To evaluate the efficacy of the compounds on the intracellular form of L. donovani, human acute monocytic leukemia cell line (THP-1) was infected with L. donovani promastigotes. Cells were harvested and seeded in a 96-well plate (10^5 cells mL^–1) in the complete RPMI 1640 medium, and PMA (0.1 μM, Cayman Chemical Company, Ann Arbor, Michigan, USA) was added for obtaining maturation and cell adherence. Cells were incubated at 37 °C in a 5% CO2 incubator. After 48 h, the medium was replaced with the fresh medium containing stationary-phase promastigotes that were then phagocyted by monocytic cells and transformed into intracellular amastigotes. After 24 h of incubation, newly synthesized compounds were added and the plates were incubated at 37 °C in a 5% CO2 incubator for 72 h. After incubation, wells were washed, fixed, and stained with Giemsa. Staining was detected using a Nikon Eclipse E200 light microscope (Nikon, Tokyo, Japan). The infectivity index (% of infected macrophages × average number of amastigotes per macrophage) was determined by counting at least 100 cells in duplicate cultures.

[3] = tested on: L. donovani promastigotes (MHOM/NP/02/BPK282/0cl4); assay: Promastigote growth inhibition assay (alamarBlue); assay type: cell-based; conditions: Leishmania donovani, HOMEM with 10% FBS
[4] = Cytotoxicity test on Vero cells (alamarBlue); assay type: cell-based, African green monkey; conditions: chlorocebus sabaeus, Vero cells (kidney epithelial cell line); 72 h, alamarBlue; read-out: CC50 (50% cytotoxic concentration) on Vero cells
Protocol: Vero cells (kidney of African green monkey epithelial cell line) were cultured at 37 °C in the MEM liquid medium supplemented with 10% FBS (EuroClone SpA), 1% levoglutamine (EuroClone SpA), and 1% penicillin–streptomycin (EuroClone SpA). THP-1 cells (human leukemia monocytic cell line) were cultured at 37 °C in the RPMI 1640 (EuroClone SpA) liquid medium supplemented with 10% FBS (EuroClone SpA), 1% levoglutamine (EuroClone SpA), 1% penicillin–streptomycin, and mercaptoethanol (Gibco) 50 μM.
The cytotoxicity of the compounds was determined using mammalian kidney epithelial cells (Vero cell line) and human acute monocytic leukemia cell line (THP-1). Cells were seeded (10^5 cells mL^–1) on 96-well plates with the complete MEM medium and incubated with test compounds at 37 °C in a 5% CO2 incubator. After 72 h of incubation, 20 μL of the alamarBlue reagent was added to each well and incubated at 37 °C for 24 h. Reduction of resazurin to resorufin was evaluated after 24 h by absorbance measurement at the Multiskan ascent plate reader (Thermo Fisher Scientific Inc.,) at 550 and 630 nm. […] Each experiment was performed in duplicate.

[5] = THP-1 CC50 / IC50 on amastigotes
[6] = Vero CC50 / IC50 on amastigotes

CCCCC1(CCCC)CO[C@@](C)(OC)[C@@H](CNCCCn2ccnc2)C1 (racemic) [3a, N-((5,5-Dibutyl-2-methoxy-2-methyltetrahydro-2H-pyran-3-yl)methyl)-3-(1H-imidazol-1-yl)propan-1-amine]
Interaction with the iron chelator DFP (isobologram, FIC) [1]: no antagonism or synergism
IC50 [1]: 3.4 ± 0.4 µM
Interaction with the iron chelator DFO (isobologram, ΣFIC) [1]: additive effects
IC50 [2]: 3.4 ± 0.6 µM
Selectivity index (SI) = CC50/IC50 [2, 5]: 7.6
Selectivity index (SI) = CC50/IC50 [2, 6]: 10.3
IC50 [3]: 1.9 µM
CC50 at 72 h [4]: 35.2 ± 4.7 µM

CCCCC1(CCCC)C[C@H](CNCCCn2ccnc2)[C@](C)(OC)OO1 [2a]
Interaction with the iron chelator DFP (isobologram, FIC) [1]: no antagonism or synergism
IC50 [1]: 7.5 ± 1.7 µM
Interaction with the iron chelator DFO (isobologram, ΣFIC) [1]: additive effects
IC50 [2]: 12.2 ± 1.2 µM
Selectivity index (SI) = CC50/IC50 [2, 5]: 7.0
Selectivity index (SI) = CC50/IC50 [2, 6]: 5.9
IC50 [3]: 2.7 µM
CC50 at 72 h [4]: 72 ± 6.6 µM
